From BigSolDB 2.1

[NH3+]C1CCCCC1.[S-]c1nc2ccccc2s1
solubility (mole fraction)
Conditions	303.15 K	308.15 K	313.15 K	318.15 K	323.15 K	328.15 K	333.15 K	338.15 K	343.15 K	348.15 K
in 1,4-dioxane	0.000208	0.000291	0.000418	0.000608	0.000793	0.00105	0.00141	0.00169	0.00217	0.00266
in MIBK	0.000389	0.000506	0.000672	0.00085	0.00111	0.00141	0.00177	0.00215	0.00252	0.00306
in toluene	2e-05	4.26e-05	5.64e-05	6.78e-05	8.02e-05	0.000121	0.000175	0.00026	0.000344	0.000421
in water	1.32e-05	1.95e-05	2.59e-05	3.24e-05	4e-05	5.4e-05	7.55e-05	8.97e-05	0.000124	0.000164
